The text below walks through data of ChEMBL document CHEMBL1135514, “Structure-based approach for binding site identification on AmpC beta-lactamase” (J Med Chem, 2002).

In general, pKi refers to −log10 of the Ki, conventionally taken in molar units. A higher pKi goes with a low Ki.

This assay deals with Beta-lactamase (Escherichia coli K-12, UniProt P00811). The experiment in a line: Binding affinity towards AmpC beta-lactamase binding site from Escherichia coli.

The structures appear in SMILES notation. pKi: −log10 of the molar value.

Chain of Beta-lactamase (P00811 whole entry): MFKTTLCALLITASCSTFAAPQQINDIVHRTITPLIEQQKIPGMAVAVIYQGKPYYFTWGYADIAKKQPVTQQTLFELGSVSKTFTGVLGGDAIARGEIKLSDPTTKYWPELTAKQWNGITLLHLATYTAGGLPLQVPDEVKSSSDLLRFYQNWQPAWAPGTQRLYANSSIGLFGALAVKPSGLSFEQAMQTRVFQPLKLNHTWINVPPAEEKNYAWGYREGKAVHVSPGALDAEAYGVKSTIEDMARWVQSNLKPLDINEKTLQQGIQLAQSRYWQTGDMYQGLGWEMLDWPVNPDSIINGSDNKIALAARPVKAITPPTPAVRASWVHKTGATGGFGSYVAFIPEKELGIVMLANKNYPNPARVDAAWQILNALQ

The compound `CC(C)(O/N=C(/C(=O)NCB(O)O)c1csc(N)n1)C(=O)O` gave a pKi of 7.70.
